In US20260364215A1, “Radiopharmaceutical Compositions Targeting Ephrin Type-A Receptor 2 and Uses Thereof” (PeptiDream Inc., priority 2022, published 2026):
Where two headings read alike, the source gives them in different places. Numbered stars: 1 amine (or outer) side, 2 acyl side, 3 side chain; on linkers, the order of the positions; unused ones are H or OH. Bridge positions count the residues as written; N and C are the ends. Square brackets hold non-standard residues; d marks the D form. Side chains are listed from the residue outwards. Peptide text beside a SMILES is read from it. * marks the point of attachment. DOTA(Lu) = O=C1CN2CCN3CCN(CC(=O)*)CCN(CC2)CC(=O)[O][Lu]([O]1)[O]C(=O)C3; NH(1-deoxy-D-glucityl) = OC[C@@H](O)[C@@H](O)[C@H](O)[C@@H](O)CN*; DOTA = O=C(O)CN1CCN(CC(=O)O)CCN(CC(=O)*)CCN(CC(=O)O)CC1; Trp(1-Me,7-Cl) = Cn1cc(C[C@H](N)C(=O)O)c2cccc(Cl)c21; dPhe(3-CONH2) = NC(=O)c1cccc(C[C@@H](N)C(=O)O)c1; Piperazinyl(4-CH2COOH) = O=C(O)CN1CCN(*)CC1; Trp(1-Me) = Cn1cc(C[C@H](N)C(=O)O)c2ccccc21; NMe3Pal = CN[C@@H](Cc1cccnc1)C(=O)O; NMeF = CN[C@@H](Cc1ccccc1)C(=O)O; hCit = NC(=O)NCCCC[C@H](N)C(=O)O; Gly(cBu) = N[C@H](C(=O)O)C1CCC1; Cit = NC(=O)NCCC[C@H](N)C(=O)O; NMeN = CN[C@@H](CC(N)=O)C(=O)O; CO = O=C([*:1])[*:2]

Molecular target: T1, Recombinant Human EphA2 Fc Protein (Homo sapiens, UniProt P29317)
T1 construct: purchased Elabscience
T1 sequence (P29317 24-534 limits assumed): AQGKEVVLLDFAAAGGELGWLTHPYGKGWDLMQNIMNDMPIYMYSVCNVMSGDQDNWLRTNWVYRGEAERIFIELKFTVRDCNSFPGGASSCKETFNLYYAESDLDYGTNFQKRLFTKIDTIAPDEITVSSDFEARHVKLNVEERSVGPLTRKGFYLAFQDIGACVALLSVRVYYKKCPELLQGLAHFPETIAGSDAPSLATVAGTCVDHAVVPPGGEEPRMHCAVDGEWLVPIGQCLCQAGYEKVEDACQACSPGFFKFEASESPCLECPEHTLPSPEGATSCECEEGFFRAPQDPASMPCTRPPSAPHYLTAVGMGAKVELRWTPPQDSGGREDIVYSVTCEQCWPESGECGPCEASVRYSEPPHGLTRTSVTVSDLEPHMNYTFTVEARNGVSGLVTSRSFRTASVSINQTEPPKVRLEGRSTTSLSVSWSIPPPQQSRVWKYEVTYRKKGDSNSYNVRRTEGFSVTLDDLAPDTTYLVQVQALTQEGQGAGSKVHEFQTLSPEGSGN
Experiment: Interaction analysis (kinetics, KD) of peptides and conjugates against EphA2 by SPR, Biacore T200, single-cycle kinetics (Examples B15 and B22)
Format: binding
Description: Example B15. Interaction Analysis by SPR was Performed Using Biacore (Cytiva)
SPR assay was performed using Biacore T200 (Cytiva).
The HBS-P+ buffer (10 mM HEPES (pH7.4), 150 mM NaCl, 0.05% (v/v) Surfactant P20) containing 1% DMSO was used as running buffer. Recombinant Human EphA2 Fc Protein (Fc tag, Elabscience) was captured by Human Antibody Capture kit (Cytiva). Peptide samples in DMSO were diluted with running buffer, and prepared five serial dilutions. Using these serial dilutions, kinetics of peptides against EphA2 was measured at a flow rate of […] at 25 °C. The method adopted for sample measurement was a single-cycle kinetics method. The analysis was conducted using the evaluation software 3.0 provided with Biacore T200. Kinetics fitting was done on the difference data obtained by subtracting the baseline data from sample measurement data. KD values were calculated based on the association rate constant (ka) and dissociation rate constant (kd).
Example B22: Interaction Analysis of Conjugates by SPR was Performed Using Biacore (Cytiva)
SPR assay was performed using Biacore T200 (Cytiva) according to Example B15.

[1] = peptides, Biacore T200, 25 °C, Table B12, read-out: SPR Kd
[2] = conjugates, Biacore T200 according to Example B15, Table B16, read-out: SPR Kd

SMILES | Kd [nM] | further results
CC(C)C[C@@H]1NC(=O)[C@H](CC(N)=O)NC(=O)[C@H](Cc2cccnc2)N(C)C(=O)[C@@H](Cc2cccc(C(N)=O)c2)NC(=O)CSC[C@@H](C(N)=O)NC(=O)[C@H](CC(N)=O)NC(=O)[C@H]([C@@H](C)O)NC(=O)[C@H](Cc2cn(C)c3ccccc23)NC(=O)[C@H](CCC(=O)NC[C@H](O)[C@@H](O)[C@H](O)[C@H](O)CO)NC(=O)[C@H](Cc2cn(C)c3c(Cl)cccc23)NC(=O)[C@H](Cc2cccnc2)N(C)C(=O)[C@H](CC(N)=O)NC1=O [PDC_EphA2-00026424] ({CH2CO}-[dPhe(3-CONH2)][NMe3Pal]NLN[NMe3Pal][Trp(1-Me,7-Cl)]E(NH(1-deoxy-D-glucityl))[Trp(1-Me)]TNC-NH2; thioether N-12) |  | Kd [1]: < 1 nM
CC(C)C[C@@H]1NC(=O)[C@H](CC(N)=O)NC(=O)[C@H](Cc2cccnc2)N(C)C(=O)[C@@H](Cc2cccc(C(N)=O)c2)NC(=O)CSC[C@@H](C(=O)N[C@H](CCCCNC(=O)CN2CCN(CC(=O)O)CCN(CC(=O)O)CCN(CC(=O)O)CC2)C(N)=O)NC(=O)[C@H](CC(N)=O)NC(=O)[C@H]([C@@H](C)O)NC(=O)[C@H](Cc2cn(C)c3ccccc23)NC(=O)[C@H](CCC(=O)NC[C@H](O)[C@@H](O)[C@H](O)[C@H](O)CO)NC(=O)[C@H](Cc2cn(C)c3c(Cl)cccc23)NC(=O)[C@H](CC(N)=O)N(C)C(=O)[C@H](CC(N)=O)NC1=O.[Lu+3] [PDC_EphA2-00026425-C302] ({CH2CO}-[dPhe(3-CONH2)][NMe3Pal]NLN[NMeN][Trp(1-Me,7-Cl)]E(NH(1-deoxy-D-glucityl))[Trp(1-Me)]TNC[dK](DOTA)-NH2; thioether N-12) |  | Kd [2]: < 1 nM
CC(C)C[C@@H]1NC(=O)[C@H](CC(N)=O)NC(=O)[C@H](Cc2cccnc2)N(C)C(=O)[C@@H](Cc2cccc(C(N)=O)c2)NC(=O)CSC[C@@H](C(=O)N[C@H](CCCCNC(=O)CN2CCN3CCN4CCN(CC2)CC(=O)[O][Lu]([O]C(=O)C3)[O]C(=O)C4)C(N)=O)NC(=O)[C@H](CC(N)=O)NC(=O)[C@H]([C@@H](C)O)NC(=O)[C@H](Cc2cn(C)c3ccccc23)NC(=O)[C@H](CCCNC(N)=O)NC(=O)[C@H](Cc2cn(C)c3c(Cl)cccc23)NC(=O)[C@H](CC(N)=O)N(C)C(=O)[C@H](CC(N)=O)NC1=O [PDC_EphA2-00026426-C302] ({CH2CO}-[dPhe(3-CONH2)][NMe3Pal]NLN[NMeN][Trp(1-Me,7-Cl)][Cit][Trp(1-Me)]TNC[dK](DOTA(Lu))-NH2; thioether N-12) | < 1 | 
CC(C)C[C@@H]1NC(=O)[C@H](CC(N)=O)NC(=O)[C@H](Cc2cccnc2)N(C)C(=O)[C@@H](Cc2cccc(C(N)=O)c2)NC(=O)CSC[C@@H](C(N)=O)NC(=O)[C@H](CC(N)=O)NC(=O)[C@H]([C@@H](C)O)NC(=O)[C@H](Cc2cn(C)c3ccccc23)NC(=O)[C@H](CCCNC(N)=O)NC(=O)[C@H](Cc2cn(C)c3c(Cl)cccc23)NC(=O)[C@H](CC(N)=O)N(C)C(=O)[C@H](CC(N)=O)NC1=O [PDC_EphA2-00026426] ({CH2CO}-[dPhe(3-CONH2)][NMe3Pal]NLN[NMeN][Trp(1-Me,7-Cl)][Cit][Trp(1-Me)]TNC-NH2; thioether N-12) |  | Kd [1]: < 1 nM
CC(C)C[C@@H]1NC(=O)[C@H](CC(N)=O)NC(=O)[C@H](Cc2cccnc2)N(C)C(=O)[C@@H](Cc2cccc(C(N)=O)c2)NC(=O)CSC[C@@H](C(=O)N[C@@H](CCCCNC(=O)CN2CCN3CCN4CCN(CC2)CC(=O)[O][Lu]([O]C(=O)C3)[O]C(=O)C4)C(N)=O)NC(=O)[C@H](Cc2cn(C)c3ccccc23)NC(=O)[C@H](CCCCNC(N)=O)NC(=O)[C@H](Cc2cn(C)c3c(Cl)cccc23)NC(=O)[C@H](Cc2ccccc2)N(C)C(=O)[C@H](CO)NC1=O [PDC_EphA2-00026600-C301] ({CH2CO}-[dPhe(3-CONH2)][NMe3Pal]NLS[NMeF][Trp(1-Me,7-Cl)][hCit][Trp(1-Me)]CK(DOTA(Lu))-NH2; thioether N-10) | < 1 | 
CC(C)C[C@@H]1NC(=O)[C@H](CC(N)=O)NC(=O)[C@H](Cc2cccnc2)N(C)C(=O)[C@@H](Cc2cccc(C(N)=O)c2)NC(=O)CSC[C@@H](C(=O)N[C@@H](CCCCNC(=O)CN2CCN3CCN4CCN(CC2)CC(=O)[O][Lu]([O]C(=O)C3)[O]C(=O)C4)C(N)=O)NC(=O)[C@H](Cc2cn(C)c3ccccc23)NC(=O)[C@H](CCCCNC(N)=O)NC(=O)[C@H](Cc2cn(C)c3c(Cl)cccc23)NC(=O)[C@H](Cc2cccnc2)N(C)C(=O)[C@H](CO)NC1=O [PDC_EphA2-00026601-C301] ({CH2CO}-[dPhe(3-CONH2)][NMe3Pal]NLS[NMe3Pal][Trp(1-Me,7-Cl)][hCit][Trp(1-Me)]CK(DOTA(Lu))-NH2; thioether N-10) | < 1 | 
CN1C(=O)[C@H](CO)NC(=O)[C@H](C2CCC2)NC(=O)[C@H](CC(N)=O)NC(=O)[C@H](Cc2cccnc2)N(C)C(=O)[C@@H](Cc2cccc(C(N)=O)c2)NC(=O)CSC[C@@H](C(=O)N[C@@H](CCCCNC(=O)CN2CCN3CCN4CCN(CC2)CC(=O)[O][Lu]([O]C(=O)C3)[O]C(=O)C4)C(N)=O)NC(=O)[C@H](Cc2cn(C)c3ccccc23)NC(=O)[C@H](CCCCNC(N)=O)NC(=O)[C@H](Cc2cn(C)c3c(Cl)cccc23)NC(=O)[C@@H]1Cc1cccnc1 [PDC_EphA2-00026602-C301] ({CH2CO}-[dPhe(3-CONH2)][NMe3Pal]N[Gly(cBu)]S[NMe3Pal][Trp(1-Me,7-Cl)][hCit][Trp(1-Me)]CK(DOTA(Lu))-NH2; thioether N-10) | < 1 | 
CN1C(=O)[C@H](CCC(=O)NC[C@H](O)[C@@H](O)[C@H](O)[C@H](O)CO)NC(=O)[C@H](C2CCC2)NC(=O)[C@H](CC(N)=O)NC(=O)[C@H](Cc2cccnc2)N(C)C(=O)[C@@H](Cc2cccc(C(N)=O)c2)NC(=O)CSC[C@@H](C(=O)N[C@@H](CCCCNC(=O)CN2CCN(CC(=O)O)CCN(CC(=O)O)CCN(CC(=O)O)CC2)C(N)=O)NC(=O)[C@H](Cc2cn(C)c3ccccc23)NC(=O)[C@H](CCCCNC(=O)N2CCN(CC(=O)O)CC2)NC(=O)[C@H](Cc2cn(C)c3c(Cl)cccc23)NC(=O)[C@@H]1Cc1cccnc1.[Lu+3] [PDC_EphA2-00026603-C301] ({CH2CO}-[dPhe(3-CONH2)][NMe3Pal]N[Gly(cBu)]E(NH(1-deoxy-D-glucityl))[NMe3Pal][Trp(1-Me,7-Cl)]K([CO-Piperazinyl(4-CH2COOH)])[Trp(1-Me)]CK(DOTA)-NH2; thioether N-10) |  | Kd [2]: < 1 nM
CN1C(=O)[C@H](CCC(=O)NC[C@H](O)[C@@H](O)[C@H](O)[C@H](O)CO)NC(=O)[C@H](C2CCC2)NC(=O)[C@H](CC(N)=O)NC(=O)[C@H](Cc2cccnc2)N(C)C(=O)[C@@H](Cc2cccc(C(N)=O)c2)NC(=O)CSC[C@@H](C(=O)N[C@@H](CCCCNC(=O)CN2CCN3CCN4CCN(CC2)CC(=O)[O][Lu]([O]C(=O)C3)[O]C(=O)C4)C(N)=O)NC(=O)[C@H](Cc2cn(C)c3ccccc23)NC(=O)[C@H](CCC(=O)NC[C@H](O)[C@@H](O)[C@H](O)[C@H](O)CO)NC(=O)[C@H](Cc2cn(C)c3c(Cl)cccc23)NC(=O)[C@@H]1Cc1cccnc1 [PDC_EphA2-00026604-C301] ({CH2CO}-[dPhe(3-CONH2)][NMe3Pal]N[Gly(cBu)]E(NH(1-deoxy-D-glucityl))[NMe3Pal][Trp(1-Me,7-Cl)]E(NH(1-deoxy-D-glucityl))[Trp(1-Me)]CK(DOTA(Lu))-NH2; thioether N-10) | < 1 | 
